Patent US8541670B2, “Compositions and methods for inhibiting tumor cell growth” (priority 2007, dated 2013)
Where no end group is shown, it is not given here. red fluorescent dye = not defined here

How the values were obtained:
[1] = molecular target: PAK3 (Homo sapiens, UniProt O75914); assay: In vitro kinase assay PAK3; assay type: biochemical; details: ten times higher concentration than 0.1 μM
Method: As a specific substrate, the phosphorylation level of GSK-3[…] at Ser-9 was also evaluated. […] The decrease was specific to the AKT phosphorylation site on GSK-3[…] at Ser-9, since a change in the phosphorylation level of GSK-3[…] at Tyr-216 or GSK-3[…] at Tyr-279 was not observed. Moreover, the in vivo reduction of the phosphorylation of AKT substrates was more obvious at the injection site, since a significant change in the phosphorylation of AKT substrates in the frontal cortex or cerebellum between the two hemispheres was not observed. […] To test the specificity/selectivity of ZaTa as the inhibitor of AKT1 versus the other major kinases, a series of in vitro kinase assays was performed at IC50 for AKT1 and at ten times higher concentrations. A panel of the following 32 kinases was first tested in vitro using the active form of each kinase and a specific substrate: AKT2, AKT3, PKA, PKC[…], PKC, PI3K[…], PI3K[…], PI3K, SGK, PAK2, PAK3, SAPK2/p38, Abl, CaMKII, CDK1/cyclinB, CDK5/p35, CK1, CK2, CSK, GSK3[…], GSK3[…], JNK1[…]1, MAPK1, p70S6K, PDGFR[…], PDGFR[…], PDK1, PKG1[…], TrkB, JAK2, JAK3, and Syk. […] However, at ten times higher concentration, ZaTa inhibited AKT2 (63%), PI3K[…] (72%), p70S6K (64%), SGK (73%), PAK3 (83%), JAK3 (79%), TrkB (84%), and Abl (42%). […]

[2] = system: AKT; assay: Cell penetration and co-localization of fluorescently labeled ZaTa with AKT; assay type: cell-based; details: immunofluorescence
Excerpt: Peptides can be very effective inhibitors since they efficiently bind to and inhibit enzymatic activity. However, intracellular delivery of peptides can limit their use. With the exception of a few peptides known as cell-penetrating peptides (CPPs), which have been recognized for their use in site-specific drug delivery, inhibitory peptides can have limited intracellular accumulation in in vivo enzymatic studies. […] Based on the primary structure of the ZaTa peptide (i.e., a peptide having a basic arm of several basic residues at the N-terminus and a polar arm composed of several residues with free hydroxyl group at the C-terminus) and in vivo inhibitory effect in the brain, it was determined whether ZaTa peptide was a CPP. The ZaTa peptide was labeled with a red fluorescent dye at its N-terminus given that its C-terminus was important for inhibitory activity. The efficiency of the labeling and the purity of the labeled peptide were assessed by mass spectrometry.
These different localization patterns of ZaTa within the cell were usually accompanied with redistribution of AKT to the site of ZaTa.
Cell cultures were analyzed by growing cells (1×10^4) on coverslips, fixation for 10 minutes in phosphate-buffered saline (PBS) plus 3.7% formaldehyde, and permeabilization for 2 minutes with cold acetone. […]

[3] = molecular target: T1, SGK (Homo sapiens, UniProt O00141); assay: Cell-based kinase assay, phosphorylation of intracellular substrate (Ser-421 Huntingtin)
T1 construct: endogenous in cells
T1 sequence (O00141 1-431): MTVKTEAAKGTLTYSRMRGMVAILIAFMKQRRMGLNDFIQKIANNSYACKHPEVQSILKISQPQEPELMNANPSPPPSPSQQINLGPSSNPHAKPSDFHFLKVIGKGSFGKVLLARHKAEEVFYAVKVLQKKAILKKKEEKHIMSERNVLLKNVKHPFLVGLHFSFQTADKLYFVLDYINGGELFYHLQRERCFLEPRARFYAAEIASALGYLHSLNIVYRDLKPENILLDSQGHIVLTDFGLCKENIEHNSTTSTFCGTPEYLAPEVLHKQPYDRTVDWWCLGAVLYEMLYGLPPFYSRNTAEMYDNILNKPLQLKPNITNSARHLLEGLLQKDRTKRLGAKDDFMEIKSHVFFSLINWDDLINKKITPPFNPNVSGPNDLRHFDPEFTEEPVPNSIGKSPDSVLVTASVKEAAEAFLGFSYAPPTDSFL
Method: As a specific substrate, the phosphorylation level of GSK-3[…] at Ser-9 was also evaluated. […] The decrease was specific to the AKT phosphorylation site on GSK-3[…] at Ser-9, since a change in the phosphorylation level of GSK-3[…] at Tyr-216 or GSK-3[…] at Tyr-279 was not observed. Moreover, the in vivo reduction of the phosphorylation of AKT substrates was more obvious at the injection site, since a significant change in the phosphorylation of AKT substrates in the frontal cortex or cerebellum between the two hemispheres was not observed. […] To test the specificity/selectivity of ZaTa as the inhibitor of AKT1 versus the other major kinases, a series of in vitro kinase assays was performed at IC50 for AKT1 and at ten times higher concentrations. […]
Phosphorylation sites for kinases analyzed herein included Ser-235/236 S6 (a substrate for p70S6K), Tyr-207 CRKL (a substrate for Abl; Zipfel, et al. (2004) supra), Ser-241 PDK1 (a substrate for PI3K), Tyr-1022/1023 JAK1 (a substrate for JAK3; Wang, et al. (2003) supra), Ser-421 Huntingtin (a substrate for SGK; Rangone, et al. (2004) supra), Tyr-783 PLC (a substrate for TrkB; Middlemas, et al. (1994) supra), and Ser-338 cRaf (a substrate for PAK3; King, et al. (1998) supra).

Chain of PAK3 (O75914 whole entry, species assumed): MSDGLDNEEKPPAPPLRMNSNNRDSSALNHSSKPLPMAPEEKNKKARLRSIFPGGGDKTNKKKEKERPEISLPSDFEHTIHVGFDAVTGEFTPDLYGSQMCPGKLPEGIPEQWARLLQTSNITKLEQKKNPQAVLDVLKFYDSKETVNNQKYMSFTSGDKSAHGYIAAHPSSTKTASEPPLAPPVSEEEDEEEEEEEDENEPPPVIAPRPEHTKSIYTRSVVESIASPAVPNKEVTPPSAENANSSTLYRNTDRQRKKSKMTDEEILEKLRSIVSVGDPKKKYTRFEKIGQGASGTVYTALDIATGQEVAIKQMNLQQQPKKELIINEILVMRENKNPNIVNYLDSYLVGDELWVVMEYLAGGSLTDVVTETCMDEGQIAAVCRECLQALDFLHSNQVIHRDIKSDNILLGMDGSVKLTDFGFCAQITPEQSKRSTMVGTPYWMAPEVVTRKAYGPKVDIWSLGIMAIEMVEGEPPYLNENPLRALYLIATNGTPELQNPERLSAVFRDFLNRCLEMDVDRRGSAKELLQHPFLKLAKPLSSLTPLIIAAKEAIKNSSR

Substance	inhibition of PAK3 [1] [%]	phosphorylation level of AKT substrates in cells entered by ZaTa [2]	inhibition of SGK in cells [3]
AKRVKGRTWTLCGTPEY [ZaTa]	83	decrease in the phosphorylation level of AKT substrates	
labeled ZaTa: ZaTa peptide labeled with a red fluorescent dye at its N-terminus ({red fluorescent dye}-AKRVKGRTWTLCGTPEY; reading uncertain)			did not cause inhibition
